Experimental data as given in publication PMC4535766, “Antiprotozoal Activity Profiling of Approved Drugs: A Starting Point toward Drug Repositioning” (PLoS ONE, 2015).
Like-named read-outs stand apart in the source and are kept apart here.

Columns and labels:
[1] = system: intracellular amastigotes of L. donovani strain MHOM-ET-67/L82; assay: Activity against Leishmania donovani intracellular amastigotes in mouse peritoneal macrophages; settings: for IC50: read-out: IC50 L. don. intracell
Summary of the method: (§1)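 Axenic amastigotes grown at pH 5.4 infected mouse peritoneal macrophages for 4 h before free parasites were washed off. Next day, seven 3-fold drug dilutions (30–0.04 μg/ml) were added for 96 h. Giemsa-stained infected macrophages were counted, burden reduction was taken vs untreated controls, and IC50 came from linear regression.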

P. falciparum strain K1 = assay: In vitro activity against P. falciparum, serial drug dilution assay
Experimental: (§2) Drug stock solutions (10mg/ml) were in DMSO (100%). […] Selectivity index (SI) was calculated as IC50 L6 cells/IC50 parasite.

[2] = system: axenic amastigotes of L. donovani, strain MHOM-ET-67/L82; assay: In vitro activity against L. donovani axenic amastigotes, serial drug dilution assay; assay type: cell-based, Leishmania donovani; settings: axenic amastigotes, strain MHOM-ET-67/L82, means of two independent assays, read-out: IC50 L. don. axen.
Experimental: as §2

[3] = system: T. cruzi, strain Tulahuen C4, intracellular amastigotes; assay: microbe, parasite or virus in culture; settings: for IC50: read-out: IC50 T. cruzi; for selectivity ratio: rat, Selectivity index: IC50 Cytotoxicity L6/ IC50 T. cruzi
Experimental: as §2

L6 cells = assay: Cytotoxicity on L6 cells
Experimental: as §2

[4] = system: T. b. rhodesiense strain STIB 900, trypomastigotes; assay: In vitro activity against T. b. rhodesiense, serial drug dilution assay; settings: for IC50: read-out: IC50 T. b. rhod.
Experimental: as §2

[5] = system: L. donovani strain MHOM-ET-67/L82 amastigotes; assay: in vitro; settings: mouse, Selectivity index: IC50 Cytotoxicity macrophages/ IC50 L. donovani
Summary of the method: as §1

Cytotoxicity on L6 cells = settings: rat
Experimental: as §2

[6] = Cytotoxicity on macrophages infected with L. donovani; assay type: cell-based, mouse; settings: mouse, macrophages infected with L. donovani, read-out: IC50 Cytotox. mac.inf.
Experimental: (§3) After 24 h 1.2 x 10^5 amastigote L. donovani in 100 μl were added. The amastigotes were taken from an axenic culture grown at pH 5.4. Four hours later, the medium containing free amastigote forms was removed and replaced by fresh medium. The next day the medium was replaced by medium with or without a serial drug dilution of seven 3-fold dilution steps covering a range from 30 to 0.04 μg/ml. Parasite growth in the presence of the drug was compared to control wells. After 96 h of incubation, the medium was removed and the slides fixed with methanol for 10 min followed by staining with a 10% Giemsa solution. Infected and non-infected macrophages were counted for the control cultures and those exposed to the serial drug dilutions. The infection rates were determined. The results were expressed as a percentage reduction in parasite burden compared to control wells, and the IC50 was calculated by linear regression analysis.

[7] = system: macrophages infected with L. donovani; assay: as above; assay type: cell-based, mouse
Experimental: as §3

[8] = In vitro cytotoxicity with mouse peritoneal macrophages (Alamar Blue); assay type: cell-based; settings: mouse
Experimental: After 96 h of incubation, the plates were inspected under an inverted microscope to assure sterility. […] The IC50 values were calculated by linear regression from the sigmoidal dose inhibition curves using SoftmaxPro software (Molecular Devices Cooperation, Sunnyvale, CA, USA).

Entamoeba histolytica = settings: cited from earlier work
[9] = parameters: method as in PMID 6813497; settings: cited from earlier work
[10] = system: T.b.rhodesiense (STIB900); assay: T.b.rhodesiense (STIB900) acute mouse model; assay type: in vivo; settings: daily oral administration of up to 25 mg/kg over a 4 day period, acutely infected mouse model
Experimental: The STIB900 acute mouse model mimics the first stage of the disease. Four female NMRI mice were used per experimental group. Each mouse was inoculated i.p. with 10^4 bloodstream forms of STIB900, respectively. Heparinized blood from a donor mouse with approximately 5x10^6 /ml parasitaemia was suspended in PSG to obtain a trypanosome suspension of […]. Each mouse was injected with 0.25 ml. Compounds were formulated in 100% DMSO, diluted 10-fold in distilled water. Compound treatment was initiated 3 days post-infection on four consecutive days for all administration routes (i.p., p.o.) in a volume of 0.1 ml/10 g. Three mice served as infected-untreated controls. […] Parasitaemia was monitored using smears of tail-snip blood twice a week after treatment for two weeks followed by once a week until 60 days post-infection. Mice are considered cured when there is no parasitaemia relapse detected in the tail blood over the 60-day observation period. Mean relapse days were determined as day of relapse post-infection of mice.

T. brucei = system: T. brucei; parameters: method as in PMID 11302796; settings: cited from earlier work
[11] = intracellular amastigotes in mouse peritoneal macrophages, strain MHOM-ET-67/L82, 96 h
[12] = read-out: IC50 P. falc. K1, strain K1, means of two independent assays
[13] = strain Tulahuen C4, intracellular amastigotes, means of two independent assays
[14] = read-out: IC50 Cytotox. L6, L6 cells, means of two independent assays
[15] = strain STIB 900, trypomastigotes, means of two independent assays
[16] = Leishmania donovani, Peritoneal macrophage, in Mus musculus, 96 h
[17] = Plasmodium falciparum, K1, read-out: IC50 P. falc. K1
[18] = L6 cells, IC50 Cytotox. L6, L6 cells, means of two independent assays
[19] = macrophages infected with L. donovani, read-out: IC50 Cytotox. mac.inf.
[20] = rats, oral single dose 6.7 mg /kg

Compound	IC50 [1, 11] [µM]	IC50 (P. falciparum strain K1; [12]) [µM]	IC50 [2] [µM]	IC50 (L6 cells; [14]) [µM]	IC50 [4, 15] [µM]	IC50 [1, 16] [µM]	selectivity ratio at 96 h [5]	IC50 (P. falciparum strain K1; [17]) [µM]	IC50 ([2]; Leishmania donovani) [µM]	IC50 ([3]; Trypanosoma cruzi, TULAHUEN) [µM]	IC50 [7, 19] [µM]	IC50 ([4]; Trypanosoma brucei) [µM]	IC50 (Cytotoxicity on L6 cells; IC50 Cytotox. L6) [µM]	IC50 at 96 h [6] [µM]	also measured
Bacitracine	> 21.1	19.8	> 70.3	42.2	> 70.3										IC50 [3, 13]: 47.1 µM
CCC[C@@]1(CCc2ccccc2)CC(O)=C([C@H](CC)c2cccc(NS(=O)(=O)c3ccc(C(F)(F)F)cn3)c2)C(=O)O1 [Tipranavir]			1.64			> 49.8	> 30	44.6	< 3	28.2	> 49.8	26.4			IC50 (Cytotoxicity on L6 cells; [18]): 53.4 µM; IC50 at 96 h ([6]; mouse peritoneal macrophages infected with L. donovani): > 50 µM
Cc1cc(C2CCCCC2)n(O)c(=O)c1 [Ciclopirox olamine]						9.09		3.75	1.64	2.49	> 11.2	0.8	1.04	20.3	selectivity ratio at 96 h ([5]; mouse peritoneal macrophages versus L. donovani amastigotes, axenic or intracellular IC50 not specified): 9; IC50 at 96 h [8]: 20.3 µM
OC(Cn1cncn1)(Cn1cncn1)c1ccc(F)cc1F [Fluconazole]				> 294		> 98			211	9.96		273		> 98	IC50 (Cytotoxicity on L6 cells; [18]): > 294 µM; selectivity ratio [3]: > 30
CC1CS(=O)(=O)CCN1/N=C/c1ccc([N+](=O)[O-])o1 (stereo not shown) [Nifurtimox]						20.7	13		2.76	0.19	> 34.8	1.44	87	34.8	selectivity ratio [3]: 458; Activity against T. b. rhodesiense (in words) ([4]; in vitro): active; selectivity ratio ([4]; rat, Selectivity index: IC50 Cytotoxicity L6/ IC50 T. b. rhodesiense): 60; IC50 at 96 h [8]: 15.7 µM
CC(=O)OC[C@H]1O[C@@H]([S-])[C@H](OC(C)=O)[C@@H](OC(C)=O)[C@@H]1OC(C)=O.CCP(CC)CC.[Au+] [Auranofin]	> 1.47	1.67	0.11	4.79	0.01						4.42				Activity against intracellular amastigotes at a fixed concentration [1]: did not exhibit activity; Times better activity against Entamoeba histolytica than the standard drug metronidazole (Entamoeba histolytica): 10 times; IC50 [3, 13]: 2.27 µM; Selectivity index: IC50 Cytotoxicity L6/ IC50 T. b. rhodesiense [4]: 479; Bioavailability [9]: 17–23%; Terminal half-life based on blood levels [9, 20]: 29 h; Terminal half-life based on serum levels [9, 20]: 43 h; In vivo efficacy (reduction of parasitemia or increased survival time) [10]: no in vivo efficacy was observed
O=C(O)c1nn(Cc2ccc(Cl)cc2Cl)c2ccccc12 [Lonidamine]						> 93.4	> 11	> 15.6	8.66	177	> 93.4	135	273	> 93.4	
NC1CCC(C23CC4CC(CC(C4)C2)C3)CC1 (stereo not shown) [1-adamantyl-4-amino-cyclohexane]															Times more effective than rimantadine (T. brucei): 20 to 25 times
NNC(=O)c1ccncc1 [Izoniazide]	> 219	> 36.5	> 656		> 656										IC50 (L6 cells): > 656 µM; IC50 [7]: > 219 µM
